# Numbered stars: 1 amine (or outer) side, 2 acyl side, 3 side chain; on linkers, the order of the positions; unused ones are H or OH. Bridge positions count the residues as written; N and C are the ends. Square brackets hold non-standard residues; d marks the D form. Peptide text beside a SMILES is read from it. Phe(4-NH2) = Nc1ccc(C[C@H](N)C(=O)O)cc1; CH2 = C([*:1])[*:2]
# Biological target: T1, Angiotensin II receptor (AT-1) type-1 (Rattus norvegicus, UniProt P29089+P25095)
# T1 sequence (P29089 whole entry): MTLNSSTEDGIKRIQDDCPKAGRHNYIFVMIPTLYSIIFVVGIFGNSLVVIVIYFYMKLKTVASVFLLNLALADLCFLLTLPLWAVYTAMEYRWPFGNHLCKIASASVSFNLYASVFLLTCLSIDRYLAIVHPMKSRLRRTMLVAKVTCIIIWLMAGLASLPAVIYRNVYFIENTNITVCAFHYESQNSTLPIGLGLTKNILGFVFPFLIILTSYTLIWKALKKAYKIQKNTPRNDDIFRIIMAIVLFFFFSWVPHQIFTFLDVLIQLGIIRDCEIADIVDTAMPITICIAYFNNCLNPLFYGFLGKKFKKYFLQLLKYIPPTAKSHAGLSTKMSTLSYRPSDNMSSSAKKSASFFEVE
# T1 sequence (P25095 whole entry): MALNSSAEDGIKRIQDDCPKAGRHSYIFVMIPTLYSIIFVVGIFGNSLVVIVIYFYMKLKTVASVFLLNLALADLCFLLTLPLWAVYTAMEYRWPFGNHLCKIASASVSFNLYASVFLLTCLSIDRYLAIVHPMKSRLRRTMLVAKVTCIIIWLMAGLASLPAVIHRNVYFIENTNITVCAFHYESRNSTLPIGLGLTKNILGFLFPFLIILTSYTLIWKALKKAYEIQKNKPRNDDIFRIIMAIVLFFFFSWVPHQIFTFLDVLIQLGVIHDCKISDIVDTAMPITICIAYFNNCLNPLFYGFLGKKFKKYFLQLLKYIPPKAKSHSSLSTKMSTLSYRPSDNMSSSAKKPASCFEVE
# Experiment: Binding affinity for angiotensin II receptor type 1 using [125I]- Ang II in rat liver membranes
# Type: cell membranes, Membrane
row,Structure (SMILES),Ki [µM]
1,CC(C)[C@H](NC(=O)[C@H](CCCN=C(N)N)NC(=O)[C@@H](N)CC(=O)O)C(=O)N[C@@H](Cc1ccc(O)cc1)C(=O)Nc1ccc2c(c1)CN(CC(=O)N[C@@H](Cc1ccccc1)C(=O)O)C(=O)[C@H](Cc1c[nH]cn1)N2,> 10
2,CC(C)[C@H](NC(=O)[C@H](C)NC(=O)[C@@H](N)CC(=O)O)C(=O)Nc1ccc2c(c1)CN(CC(=O)N[C@@H](Cc1c[nH]cn1)C(=O)N1CCC[C@H]1C(=O)N[C@@H](Cc1ccccc1)C(=O)O)C(=O)[C@H](Cc1ccc(O)cc1)N2,> 10
3,"CC[C@@H](C)[C@@H](C(=O)N[C@@H](Cc1c[nH]cn1)C(=O)N1CCC[C@H]1C(=O)N[C@@H](Cc1ccccc1)C(=O)O)N1Cc2cc(NC(=O)[C@H](CCCN=C(N)N)NC(=O)[C@@H](N)CC(=O)O)ccc2[C@@H](Cc2ccc(O)cc2)C1=O (single isomer, unassigned; diastereomer a)",> 10
4,N=C(N)NCCC[C@H](NC(=O)[C@@H](N)CC(=O)O)C(=O)N[C@H]1CSCSC[C@@H](C(=O)N[C@@H](Cc2cnc[nH]2)C(=O)N2CCC[C@H]2C(=O)N[C@@H](Cc2ccccc2)C(=O)O)NC(=O)[C@H](Cc2ccc(O)cc2)NC1=O (H-DRCYCHPF-OH; linker 3-5 via CH2),0.044
5,CC[C@H](C)[C@H](NC(=O)[C@H](Cc1ccc(O)cc1)NC(=O)[C@@H](NC(=O)[C@H](CCCN=C(N)N)NC(=O)[C@@H](N)CC(=O)O)C(C)C)C(=O)N[C@@H](Cc1ccc(N)cc1)C(=O)N1CCC[C@H]1C(=O)N[C@@H](Cc1ccccc1)C(=O)O (H-DRVYI[Phe(4-NH2)]PF-OH),> 10

# From ChEMBL document CHEMBL1148411 (J Med Chem, 2004)
